# Assays:
# [1] = test system: HGC27 cells; experiment: Annexin V-PE/7-AAD apoptosis assay (flow cytometry), HGC27; format: cell-based, human; conditions: 1000 nM, 24 h
# Protocol: Apoptosis was measured by staining with phycoerythrin (PE)-annexin V and 7-amino-actinomycin (7-AAD) (BD Biosciences, Erembodegem, Belgium) for 15 min at room temperature in the dark, followed by flow cytometry (BD Biosciences) within 1 h. Apoptosis was analyzed with FlowJo 7.6 software (FlowJo, LLC, Ashland, Oregon).
# Supplementary file 12967_2017_1360_MOESM2_ESM.pdf: Additional file 2: Figure S2. Gimatecan induces apoptosis in HGC27 cell line. (A) Compared with irinotecan, gimatecan induced higher cell apoptosis in HGC27 cell. Cells were treated with gimatecan (0–1 µM) and irinotecan (0–1 µM) for 24 h and stained with Annexin V-PE/7-AAD. Sums of percentages of early apoptosis (Q3) and late apoptosis (Q2) were calculated as the total apoptosis ratios. (B) Pro- and anti-apoptotic proteins including Bcl-2, Bak, PARP and cleaved PARP were assessed by western-blotting in HGC27 cell. Western-blotting bands were quantified and normalized by ImageJ. All data are means ± SD of three independent experiments. *Compared with controls, p < 0.05; ns, p > 0.05.
# [2] = test system: AKT and MAPK signaling pathways; experiment: Western blot of AKT and MAPK pathway molecules in GC cells; format: cell-based, human; conditions: 48 h
# Protocol: SNU-1, HGC27 and NCI-N87 cells were starved in serum-free medium overnight, exposed to inhibitors for 48 h and harvested at 70–80% confluence. Total protein was extracted from cells or xenograft tissues on ice, using RIPA Lysis Buffer (Beyotime, Shanghai, China) supplemented with complete protease inhibitor and phosphatase inhibitor cocktail (Roche, Basel, Switzerland). Protein concentration was measured using a BCA Protein Assay Kit (Beyotime, Shanghai, China), and 50 μg protein from each sample was separated by 10% SDS-PAGE. After transfer to nitrocellulose membranes (GE Healthcare, Piscataway, NJ), samples were incubated with corresponding primary antibodies diluted in 5% BSA at 4 °C overnight and then with secondary antibodies at room temperature for 1 h. Proteins were visualized with a chemiluminescent detection system (GE Healthcare), using ECL plus Western blot reagents (GE Healthcare). Western-blotting bands were quantified and normalized by ImageJ software.
# Cells were starved in serum-free medium overnight, exposed to gimatecan or irinotecan for 48 h and harvested at 70–80% confluence. Total protein of SNU-1 and NCI-N87 was extracted and the expression of TopI, pAKT, pMEK, pERK, p-p38 MAPK and pJNK2 were assessed by western-blotting followed by quantification and normalization by ImageJ. All data are mean ± SD of three independent experiments. Compared with controls, *p < 0.05
smiles,measurement,setting,value
"CC[C@@]1(O)C(=O)OCc2c1cc1n(c2=O)Cc2c-1nc1ccccc1c2/C=N/OC(C)(C)C [Gimatecan, 7-t-butoxyiminomethylcamptothecin]",proportion of apoptotic cells,[1],14.27 ± 1.69%
same,effect on AKT and MAPK pathway molecules,[2]; NCI-N87 cells,only inhibited expression of pAKT and pERK
same,effect on AKT and MAPK pathway molecules,"[2]; SNU-1 and HGC27 cells, pAKT, pMEK, pERK inhibited, p-p38 and pJNK2 upregulated",significantly inhibited the AKT pathway and activated the JNK2 and p38 MAPK pathway

# — PMC5729429, “Gimatecan exerts potent antitumor activity against gastric cancer in vitro and in vivo via AKT and MAPK signaling pathways” (Journal of Translational Medicine, 2017)
